Experimental data reported in publication PMC10746543, “Design principles for cyclin K molecular glue degraders” (Nature Chemical Biology, 2023).
Several values for one entry are separate records, joined by “and”; a condition that tells them apart may be missing. Equal entries are not always repeated. Where two headings read alike, the source gives them in different places.

Key:
[1] = test system: cyclin K–eGFP degradation reporter; experiment: Cyclin K reporter stability analysis (dual-color cyclin K–eGFP reporter); format: cell-based, human; conditions: for reporter assay signal (normalized): replicates
How it was run: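 Values reflect cyclin K–eGFP levels after a 5 h exposure, expressed as the green-to-red fluorescence ratio and scaled to three vehicle-treated controls. Measurements came from HEK293T–Cas9 reporter cells by flow cytometry.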

HEK293T cells = experiment: Drug sensitivity assay (CellTiter-Glo viability) with or without MLN4924 pretreatment; format: cell-based, human; conditions: for EC50: Homo sapiens, HEK-293T
How it was run: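 HEK293T–Cas9 cells at 0.15 × 10^6 ml^−1 were treated with DMSO or 100 nM MLN4924 before plating. Test drugs were added 2 h later and exposure lasted 3 days. Viability was read by CellTiter-Glo luminescence and expressed relative to DMSO controls.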

CDK12–cyclin K = CDK12–cyclin K (Homo sapiens, UniProt Q9NYV4); experiment: Lanthascreen kinase binding assay, CDK12; conditions: duplicates
Sequence of CDK12–cyclin K (Q9NYV4 713-1052): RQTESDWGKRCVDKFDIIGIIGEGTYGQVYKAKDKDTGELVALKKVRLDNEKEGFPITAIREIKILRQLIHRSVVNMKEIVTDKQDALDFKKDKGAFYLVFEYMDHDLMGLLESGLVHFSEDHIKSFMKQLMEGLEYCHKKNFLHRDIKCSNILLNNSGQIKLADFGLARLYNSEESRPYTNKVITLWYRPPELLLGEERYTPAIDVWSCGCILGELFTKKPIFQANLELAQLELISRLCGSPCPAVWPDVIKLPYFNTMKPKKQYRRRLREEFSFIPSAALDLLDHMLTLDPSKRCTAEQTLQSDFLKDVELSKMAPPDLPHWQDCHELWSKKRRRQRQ
Sequence of CDK12–cyclin K (O75909 1-267 partner limits assumed): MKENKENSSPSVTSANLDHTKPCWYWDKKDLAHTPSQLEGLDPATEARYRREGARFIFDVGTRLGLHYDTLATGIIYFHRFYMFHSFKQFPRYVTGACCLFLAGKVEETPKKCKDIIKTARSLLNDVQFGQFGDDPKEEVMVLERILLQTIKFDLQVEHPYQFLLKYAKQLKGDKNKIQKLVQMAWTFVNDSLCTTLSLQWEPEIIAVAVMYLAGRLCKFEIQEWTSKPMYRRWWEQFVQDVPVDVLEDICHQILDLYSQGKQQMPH
Experimental: Lanthascreen experiments were performed using commercially available reagents (Thermo Fisher) and according to the manufacturer’s instructions.

CDK13 = biological target: T1, CDK13 (Homo sapiens, UniProt Q14004+Q16531); experiment: Label-free quantitative mass spectrometry in MDA-MB-231 cells, CDK13; format: cell-based
T1 construct: endogenous in cells; host or cells: MDA-MB-231
T1 sequence (Q14004 whole entry): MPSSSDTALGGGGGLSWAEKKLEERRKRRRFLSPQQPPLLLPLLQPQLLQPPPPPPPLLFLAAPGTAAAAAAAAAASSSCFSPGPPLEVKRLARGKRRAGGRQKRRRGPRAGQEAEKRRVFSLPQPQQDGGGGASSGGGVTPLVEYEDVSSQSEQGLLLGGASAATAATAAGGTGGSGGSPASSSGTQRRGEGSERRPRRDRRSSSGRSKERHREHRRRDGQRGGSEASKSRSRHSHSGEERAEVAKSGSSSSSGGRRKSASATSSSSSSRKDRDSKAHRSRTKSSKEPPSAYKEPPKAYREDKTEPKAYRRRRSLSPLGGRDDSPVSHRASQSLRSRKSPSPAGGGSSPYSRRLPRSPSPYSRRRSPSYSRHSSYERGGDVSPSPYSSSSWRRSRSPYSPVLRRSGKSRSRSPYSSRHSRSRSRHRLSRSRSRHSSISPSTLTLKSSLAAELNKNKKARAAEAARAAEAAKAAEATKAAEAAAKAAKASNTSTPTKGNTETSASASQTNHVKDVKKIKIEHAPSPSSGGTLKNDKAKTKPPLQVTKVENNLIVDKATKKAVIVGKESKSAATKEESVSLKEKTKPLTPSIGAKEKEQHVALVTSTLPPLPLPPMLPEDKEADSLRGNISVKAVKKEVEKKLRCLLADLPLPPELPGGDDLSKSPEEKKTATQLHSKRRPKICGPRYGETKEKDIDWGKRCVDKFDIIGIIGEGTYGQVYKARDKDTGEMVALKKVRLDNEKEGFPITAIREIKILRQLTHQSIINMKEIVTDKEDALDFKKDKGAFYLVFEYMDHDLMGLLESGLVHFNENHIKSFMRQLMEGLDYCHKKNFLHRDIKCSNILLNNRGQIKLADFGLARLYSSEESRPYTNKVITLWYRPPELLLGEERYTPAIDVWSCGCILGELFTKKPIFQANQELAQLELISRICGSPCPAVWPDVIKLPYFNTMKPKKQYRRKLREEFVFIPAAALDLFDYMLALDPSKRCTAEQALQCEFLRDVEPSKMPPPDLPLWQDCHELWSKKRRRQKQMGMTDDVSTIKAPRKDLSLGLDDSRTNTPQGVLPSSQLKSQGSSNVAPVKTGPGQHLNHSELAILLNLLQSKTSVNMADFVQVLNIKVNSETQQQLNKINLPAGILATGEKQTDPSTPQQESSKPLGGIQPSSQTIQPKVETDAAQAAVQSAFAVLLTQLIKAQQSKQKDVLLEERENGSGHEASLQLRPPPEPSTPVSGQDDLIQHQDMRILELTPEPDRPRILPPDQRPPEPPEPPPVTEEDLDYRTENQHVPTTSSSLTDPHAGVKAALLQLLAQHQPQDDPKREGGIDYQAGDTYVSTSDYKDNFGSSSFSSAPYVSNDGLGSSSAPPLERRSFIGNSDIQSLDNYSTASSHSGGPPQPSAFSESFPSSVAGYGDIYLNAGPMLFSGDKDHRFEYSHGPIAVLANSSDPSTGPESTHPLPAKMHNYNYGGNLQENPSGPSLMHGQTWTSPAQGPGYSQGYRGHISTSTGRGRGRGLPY
T1 sequence (O75909 whole entry partner): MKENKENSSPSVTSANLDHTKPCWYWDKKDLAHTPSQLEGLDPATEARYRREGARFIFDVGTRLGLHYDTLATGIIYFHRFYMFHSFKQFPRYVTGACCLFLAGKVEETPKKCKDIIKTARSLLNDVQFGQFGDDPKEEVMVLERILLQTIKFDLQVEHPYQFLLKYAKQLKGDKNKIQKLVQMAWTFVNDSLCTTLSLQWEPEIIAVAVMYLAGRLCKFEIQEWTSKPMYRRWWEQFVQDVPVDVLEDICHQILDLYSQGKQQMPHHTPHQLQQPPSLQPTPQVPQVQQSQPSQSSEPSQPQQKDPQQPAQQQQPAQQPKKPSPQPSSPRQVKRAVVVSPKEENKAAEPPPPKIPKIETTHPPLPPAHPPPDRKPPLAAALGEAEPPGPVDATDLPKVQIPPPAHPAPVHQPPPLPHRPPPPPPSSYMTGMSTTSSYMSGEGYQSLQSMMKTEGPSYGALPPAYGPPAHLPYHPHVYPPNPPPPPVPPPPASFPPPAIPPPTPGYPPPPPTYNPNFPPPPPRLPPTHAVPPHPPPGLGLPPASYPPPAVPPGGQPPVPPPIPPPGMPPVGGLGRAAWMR
T1 sequence (Q16531 2-1140 limits assumed): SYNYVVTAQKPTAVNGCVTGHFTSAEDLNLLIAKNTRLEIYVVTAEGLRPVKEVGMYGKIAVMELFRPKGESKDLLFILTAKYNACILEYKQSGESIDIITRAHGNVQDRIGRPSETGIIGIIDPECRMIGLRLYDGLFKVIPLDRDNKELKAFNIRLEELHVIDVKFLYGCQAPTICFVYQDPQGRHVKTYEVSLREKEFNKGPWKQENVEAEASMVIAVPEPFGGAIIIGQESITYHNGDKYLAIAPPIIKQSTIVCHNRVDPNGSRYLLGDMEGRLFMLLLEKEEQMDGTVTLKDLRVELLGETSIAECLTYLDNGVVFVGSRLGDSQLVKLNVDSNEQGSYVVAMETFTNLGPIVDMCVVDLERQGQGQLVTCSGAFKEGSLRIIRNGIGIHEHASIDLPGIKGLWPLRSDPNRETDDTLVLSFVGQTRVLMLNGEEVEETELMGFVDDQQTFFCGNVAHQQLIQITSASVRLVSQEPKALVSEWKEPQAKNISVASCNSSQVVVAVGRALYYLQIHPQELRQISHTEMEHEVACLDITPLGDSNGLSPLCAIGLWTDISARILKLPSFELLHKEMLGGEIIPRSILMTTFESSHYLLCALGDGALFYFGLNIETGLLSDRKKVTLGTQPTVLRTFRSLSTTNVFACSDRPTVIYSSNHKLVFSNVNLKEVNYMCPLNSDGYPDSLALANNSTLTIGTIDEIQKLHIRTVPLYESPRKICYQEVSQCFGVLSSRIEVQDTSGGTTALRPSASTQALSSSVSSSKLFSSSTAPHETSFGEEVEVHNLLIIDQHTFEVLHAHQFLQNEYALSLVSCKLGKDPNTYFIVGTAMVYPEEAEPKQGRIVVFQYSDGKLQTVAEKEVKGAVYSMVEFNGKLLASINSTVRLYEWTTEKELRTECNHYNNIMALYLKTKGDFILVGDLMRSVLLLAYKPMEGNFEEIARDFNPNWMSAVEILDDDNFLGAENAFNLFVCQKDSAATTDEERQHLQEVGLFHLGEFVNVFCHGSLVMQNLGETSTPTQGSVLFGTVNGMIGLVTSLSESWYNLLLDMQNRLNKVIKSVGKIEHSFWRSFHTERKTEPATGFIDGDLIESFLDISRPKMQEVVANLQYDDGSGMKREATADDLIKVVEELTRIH
Experimental: MDA-MB-231 cells were treated with DMSO or a cyclin K degrader compound at 1 µM for 5 h. Cells were collected by centrifugation and washed with phosphate-buffered saline before snap freezing in liquid nitrogen. Cells were lysed by addition of lysis buffer (8 M urea, 50 mM NaCl, 50 mM 4-(2-hydroxyethyl)-1-piperazineethanesulfonic acid (EPPS) pH 8.5, and protease and phosphatase inhibitors) and homogenization by bead beating (BioSpec) for three repeats of 30 s at 2,400 rpm. Bradford assay was used to determine the final protein concentration in the clarified cell lysate. Then 50 µg of protein for each sample was reduced, alkylated and precipitated using methanol/chloroform as previously described, and the resulting washed precipitated protein was allowed to air dry. Precipitated protein was resuspended in 4 M urea, 50 mM HEPES pH 7.4, followed by dilution to 1 M urea with the addition of 200 mM EPPS, pH 8. Proteins were first digested with LysC (1:50; enzyme:protein) for 12 h at room temperature. The LysC digestion was diluted to 0.5 M urea with 200 mM EPPS pH 8 followed by digestion with trypsin (1:50; enzyme:protein) for 6 h at 37 °C. Sample digests were acidified with formic acid to a pH of 2–3 before desalting using C18 solid phase extraction plates (SOLA, Thermo Fisher Scientific). Desalted peptides were dried in a vacuum-centrifuged and reconstituted in 0.1% formic acid for liquid chromatography–mass spectrometry analysis.
Data were collected using a TimsTOF Pro2 (Bruker Daltonics) coupled to a nanoElute LC pump (Bruker Daltonics) via a CaptiveSpray nano-electrospray source. Peptides were separated on a reversed-phase C18 column (25 cm × 75 µm inner diameter, […], IonOpticks) containing an integrated captive spray emitter. Peptides were separated using a 50 min gradient of 2–30% buffer B (acetonitrile in 0.1% formic acid) with a flow rate of 250 nl min^−1 and column temperature maintained at 50 °C.
Data-dependent acquisition (DDA) was performed in Parallel Accumulation-Serial Fragmentation (PASEF) mode to determine effective ion mobility windows for downstream diaPASEF data collection. The ddaPASEF parameters included: 100% duty cycle using accumulation and ramp times of 50 ms each, one Trapped Ion Mobility Spectrometry(TIMS)-MS scan and ten PASEF ramps per acquisition cycle. The TIMS-MS survey scan was acquired between 100 m/z and 1,700 m/z and 1/K0 of 0.7–1.3 V s cm^−2. Precursors with one to five charges were selected, and those that reached an intensity threshold of 20,000 arbitrary units were actively excluded for 0.4 min. The quadrupole isolation width was set to 2 m/z for m/z < 700 and 3 m/z for m/z > 800, with the m/z between 700 m/z and 800 m/z being interpolated linearly. […] To perform diaPASEF, the precursor distribution in the DDA m/z-ion mobility plane was used to design an acquisition scheme for data-independent acquisition (DIA) data collection that included two windows in each 50 ms diaPASEF scan. Data were acquired using 16 of these 25 Da precursor double window scans (creating 32 windows) that covered the diagonal scan line for doubly and triply charged precursors, with singly charged precursors able to be excluded by their position in the m/z-ion mobility plane. These precursor isolation windows were defined between 400 m/z and 1,200 m/z and 1/K0 of 0.7–1.3 V s cm^−2.
DirectDIA mode includes first extracting the DIA data into a collection of MS2 spectra which are searched using Spectronaut’s Pulsar search engine. The search results are then used to generate a spectral library which is then employed for the targeted analysis of the DIA data. MS/MS spectra were searched against a Swissprot human database (January 2021). Database search criteria largely followed the default settings for directDIA including: tryptic with two missed cleavages, fixed carbomidomethylation of cysteine, and variable oxidation of methionine and acetylation of protein N-termini and precursor Q-value (FDR) cut-off of 0.01. […]

- DC50 ([1]; Supplementary Fig. 4, HEK293T cycKeGFP reporter, 5h, n=2, read-out: DC50 printed on reporter plot): 15 nM
- DC50 ([1]; source data sheet correlations, read-out: DC50): 24 nM
- Lanthascreen raw signal, sheet CDK12 (CDK12–cyclin K; compound 0.038147 nM, series r37): 0.01304 and 0.01325
- Lanthascreen raw signal, sheet CDK12 (CDK12–cyclin K; compound 0.038147 nM, series r49): 0.007695 and 0.007446
- Lanthascreen raw signal, sheet CDK12 (CDK12–cyclin K; compound 0.152588 nM, series r37): 0.01428 and 0.01359
- Lanthascreen raw signal, sheet CDK12 (CDK12–cyclin K; compound 0.152588 nM, series r49): 0.009378 and 0.01005
- Lanthascreen raw signal, sheet CDK12 (CDK12–cyclin K; compound 0.610352 nM, series r37): 0.015 and 0.0141
- Lanthascreen raw signal, sheet CDK12 (CDK12–cyclin K; compound 0.610352 nM, series r49): 0.009165 and 0.0112
- Lanthascreen raw signal, sheet CDK12 (CDK12–cyclin K; compound 0.76 nM, series r25): 0.01077 and 0.009668
- Lanthascreen raw signal, sheet CDK12 (CDK12–cyclin K; compound 1.02544 nM, series r1): 0.009016 and 0.007993
- Lanthascreen raw signal, sheet CDK12 (CDK12–cyclin K; compound 3.15521 nM, series r1): 0.009443 and 0.008694
- Lanthascreen raw signal, sheet CDK12 (CDK12–cyclin K; compound 4.57247 nM, series r25): 0.009656 and 0.009902
- Lanthascreen raw signal, sheet CDK12 (CDK12–cyclin K; compound 9.46563 nM, series r1): 0.008963 and 0.008112
- Lanthascreen raw signal, sheet CDK12 (CDK12–cyclin K; compound 9.76563 nM, series r37): 0.01368 and 0.01299
- Lanthascreen raw signal, sheet CDK12 (CDK12–cyclin K; compound 9.76563 nM, series r49): 0.009408 and 0.009212
- Lanthascreen raw signal, sheet CDK12 (CDK12–cyclin K; compound 13.7174 nM, series r25): 0.01017 and 0.01059
- Lanthascreen raw signal, sheet CDK12 (CDK12–cyclin K; compound 31.5521 nM, series r1): 0.006752 and 0.007539
- Lanthascreen raw signal, sheet CDK12 (CDK12–cyclin K; compound 39.0625 nM, series r37): 0.01193 and 0.01223
- Lanthascreen raw signal, sheet CDK12 (CDK12–cyclin K; compound 39.0625 nM, series r49): 0.009305 and 0.008784
- Lanthascreen raw signal, sheet CDK12 (CDK12–cyclin K; compound 41.1523 nM, series r25): 0.009709 and 0.009531
- Lanthascreen raw signal, sheet CDK12 (CDK12–cyclin K; compound 99.3891 nM, series r1): 0.006201 and 0.006527
- Lanthascreen raw signal, sheet CDK12 (CDK12–cyclin K; compound 123.457 nM, series r25): 0.008131 and 0.007441
- Lanthascreen raw signal, sheet CDK12 (CDK12–cyclin K; compound 156.25 nM, series r37): 0.00959 and 0.00993
- Lanthascreen raw signal, sheet CDK12 (CDK12–cyclin K; compound 156.25 nM, series r49): 0.007819 and 0.007288
- Lanthascreen raw signal, sheet CDK12 (CDK12–cyclin K; compound 315.521 nM, series r1): 0.007121 and 0.006383
- Lanthascreen raw signal, sheet CDK12 (CDK12–cyclin K; compound 370.37 nM, series r25): 0.007201 and 0.007104
- Lanthascreen raw signal, sheet CDK12 (CDK12–cyclin K; compound 625 nM, series r37): 0.007458 and 0.007383
- Lanthascreen raw signal, sheet CDK12 (CDK12–cyclin K; compound 625 nM, series r49): 0.006302 and 0.006427
- Lanthascreen raw signal, sheet CDK12 (CDK12–cyclin K; compound 2500 nM, series r37): 0.006338 and 0.006017
- Lanthascreen raw signal, sheet CDK12 (CDK12–cyclin K; compound 2500 nM, series r49): 0.006233 and 0.005662
- Lanthascreen raw signal, sheet CDK12 (CDK12–cyclin K; compound 3155.21 nM, series r1): 0.005736 and 0.005607
- Lanthascreen raw signal, sheet CDK12 (CDK12–cyclin K; compound 3333.33 nM, series r25): 0.00631 and 0.006815
- Lanthascreen raw signal, sheet CDK12 (CDK12–cyclin K; compound 10000 nM, series r25): 0.004829 and 0.005941
- Lanthascreen raw signal, sheet CDK12 (CDK12–cyclin K; compound 10000 nM, series r37): 0.006588 and 0.005825
- Lanthascreen raw signal, sheet CDK12 (CDK12–cyclin K; compound 10000 nM, series r49): 0.006042 and 0.005923
- Lanthascreen raw signal, sheet CDK12 (CDK12–cyclin K; compound 10002 nM, series r1): 0.006385 and 0.006398
- CDK13 peptide count (CDK13; label-free quantitative MS, replicate values): 225.708 and 137.684
- CDK13 peptide count (DMSO-normalised) (CDK13; normalised to DMSO = 1, replicate values): 0.3358 and 0.2116
SMILES: CCC(CO)Nc1nc(NCc2ccc(-c3ccccn3)cc2)c2ncn(C(C)C)c2n1 (stereo not shown) [CR8, reference compound]
- reporter assay signal (normalized) ([1]; 2 nM): 0.8972 and 0.9042
- reporter assay signal (normalized) ([1]; 3 nM): 0.9215 and 0.8933
- reporter assay signal (normalized) ([1]; 4.5 nM): 0.9042 and 0.8823
- reporter assay signal (normalized) ([1]; 7.68 nM): 0.8744 and 0.8637
- reporter assay signal (normalized) ([1]; 22.8 nM): 0.7879 and 0.7853
- reporter assay signal (normalized) ([1]; 34.2 nM): 0.7383 and 0.7347
- reporter assay signal (normalized) ([1]; 51.3 nM): 0.6912 and 0.706
- reporter assay signal (normalized) ([1]; 77 nM): 0.6707 and 0.6773
- reporter assay signal (normalized) ([1]; 260 nM): 0.5992 and 0.6647
- reporter assay signal (normalized) ([1]; 390 nM): 0.6455 and 0.6368
- reporter assay signal (normalized) ([1]; 585 nM): 0.6031 and 0.6411
- reporter assay signal (normalized) ([1]; 877 nM): 0.5764 and 0.6073
- reporter assay signal (normalized) ([1]; 1970 nM): 0.6031 and 0.6571
- reporter assay signal (normalized) ([1]; 2960 nM): 0.6526 and 0.6453
- reporter assay signal (normalized) ([1]; 4440 nM): 0.6125 and 0.6655
- reporter assay signal (normalized) ([1]; 6670 nM): 0.6345 and 0.6267
- reporter assay signal (normalized) ([1]; 10000 nM): 0.6031 and 0.6495
- cyclin K reporter degradation, result in words ([1]; HEK293T): potent degraders
- viability assay signal (normalized) (HEK293T cells; 2 nM, + MLN4924): 1.107 and 1.008
- viability assay signal (normalized) (HEK293T cells; 2 nM, without MLN4924): 1.041 and 1.037
- viability assay signal (normalized) (HEK293T cells; 4.69 nM, + MLN4924): 1.279 and 1.055
- viability assay signal (normalized) (HEK293T cells; 4.69 nM, without MLN4924): 1.03 and 1.007
- viability assay signal (normalized) (HEK293T cells; 11 nM, + MLN4924): 1.009 and 1.091
- viability assay signal (normalized) (HEK293T cells; 11 nM, without MLN4924): 1.0171 and 1.083
- viability assay signal (normalized) (HEK293T cells; 25.7 nM, + MLN4924): 1.13 and 1.18
- viability assay signal (normalized) (HEK293T cells; 25.7 nM, without MLN4924): 0.9174 and 1.057
- viability assay signal (normalized) (HEK293T cells; 141 nM, + MLN4924): 1.076 and 1.102
- viability assay signal (normalized) (HEK293T cells; 141 nM, without MLN4924): 0.4857 and 0.5122
- viability assay signal (normalized) (HEK293T cells; 331 nM, + MLN4924): 0.8705 and 0.873
- viability assay signal (normalized) (HEK293T cells; 331 nM, without MLN4924): 0.3951 and 0.3542
- viability assay signal (normalized) (HEK293T cells; 4270 nM, + MLN4924): 0.4449 and 0.4383
- viability assay signal (normalized) (HEK293T cells; 4270 nM, without MLN4924): 0.4332 and 0.4197
- viability assay signal (normalized) (HEK293T cells; 10000 nM, + MLN4924): 0.4134 and 0.5002
- viability assay signal (normalized) (HEK293T cells; 10000 nM, without MLN4924): 0.424 and 0.4316
- EC50 (HEK293T cells; Supplementary Fig. 5, HEK293T, CellTiter Glo, 72h, pre-treatment with 100 nM MLN4924, read-out: Viability EC50, with MLN4924): 519 nM
- EC50 (HEK293T cells; Supplementary Fig. 5, HEK293T, CellTiter Glo, 72h, read-out: Viability EC50, no MLN4924): 78 nM
- EC50 (HEK293T cells; Supplementary Table 2, HEK293T viability, 72 h, compound alone, read-out: Cellular assays EC50): 159 nM
- Toxicity rescue (HEK293T cells; Supplementary Table 2, MLN4924-mediated cytotoxicity rescue, 10 µM used where n.d.): 342%
